Test results published in patent publication US11059718B2, “Methods and compositions using peptides and proteins with C-terminal elements” (Sanford Burnham Prebys Medical Discovery Institute, priority 2009, dated 2021).

Key:
NRP-1 [1] = biological target: T1, NRP-1 (Homo sapiens, UniProt O14786); assay: Affinity chromatography of PPC-1 tumor extracts on immobilized RPARPAR peptide; assay type: binding; settings: PPC-1 tumor extract; confirmed by immunoblotting
T1 construct: from tissue; host or cells: orthotopic PPC-1 prostate tumor xenografts grown in BALB/c athymic nude mice
Description: PPC-1 tumors were lysed in PBS containing 200 mM n-octyl-beta-D-glucopyranoside, followed by incubation with RPARPAR (SEQ ID NO:2)-coated Sulfolink-beads (Pierce, Rockford, Ill.) and elution in lysis buffer containing 2 mM free RPARPAR (SEQ ID NO:2) peptide. Gel fragments excised from silver stained gel of eluted fractions were subjected to MALDI-TOF mass spectrometry at the Burnham Institute for Medical Research Proteomics Resource.
Orthotopic PPC-1 tumors were homgenized in PBS containing 400 mM n-octyl-beta-D-glucopyranoside, 1 mM MgSO4, 1 mM MnCl2, 1 mM CaCl2) and 1 tablet/5 ml of EDTA-free protease inhibitors cocktail (Sigma, St. Louis, Mo.). After 6 hours of extraction on a rotating platform at 4° C., the lysate was cleared by centrifugation (20 minutes at 14,000 rpm in refrigerated microcentrifuge) and loaded to an affinity column prepared by coupling cysteine-tagged RPARPAR (SEQ ID NO:2) peptide to Sulfolink coupling gel according to the manufacturer's instructions (Pierce, Rockford, Ill.). After overnight binding, the column was washed with a column wash buffer containing 200 mM n-octyl-beta-D-glucopyranoside, but otherwise identical to the lysis buffer, followed by elution with 2 mM free RPARPAR (SEQ ID NO:2) peptide in the same buffer. […]

NRP-1 [2] = assay: RPARPAR binding and internalization in M21 melanoma cells with or without NRP-1 expression; assay type: cell-based; settings: M21 cells, which do not express NRP-1
Description: (§1) For biopanning and phage binding studies (Hoffman, J. A. et al., 2004), cultured cells were grown to confluence and harvested with trypsin and mouse organs were dissociated using Medimachine (BD Biosciences, San Jose, Calif.). To measure phage binding, 10^6 cells in binding buffer (DMEM containing 1% BSA) were incubated with 10^9 pfu/ml of T7 phage for 1 hour at 4° C. The cells were washed 4 times with the binding buffer, lysed in LB bacterial growth medium containing 1% NP-40, and titrated. Phage internalization assays used the same procedure, except that the cells were incubated with the phage at 37° C., and that an acidic buffer (500 mM sodium chloride, 0.1 M glycine, 1% BSA, pH 2.5) was used instead of binding buffer in the second wash.
(§2) Expression construct of the wild type NRP-1 cDNA in pcDNA3.1(+) was a kind gift of Dr. Michael Klagsbrun. Site directed mutagenesis was used to generate triple mutation of the VEGF-165 binding site in the b1 domain of NRP-1 (S346A-E348A-349A) by replacing […] (SEQ ID NO:29; encoding amino acids SKET) with […] (SEQ ID NO:30; encoding AKAA).
(§3) M21 melanoma cells were transiently transfected with these constructs using lipofectamine according to manufacturer's instructions (Invitrogen, Carlsbad, Calif.). Protease treatment of phage and qdots. […]

NRP-1 [3] = biological target: T2, NRP-1 (Homo sapiens, UniProt O14786, E348A/S346A/T349A); assay: as above; assay type: cell-based; settings: triple mutation of VEGF-165 binding site in b1 domain
T2 construct: expressed in transfected cells; host or cells: M21 melanoma cells, transient lipofectamine transfection
Description: as §1, §2, §3

[4] = test system: PPC1 prostate cancer cells; assay: T7 phage binding and internalization on cultured PPC1 cells; assay type: cell-based, human
Description: as §1, with “To” for “For biopanning and phage binding studies (Hoffman, J. A. et al., 2004), cultured cells were grown to confluence and harvested with trypsin and mouse organs were dissociated using Medimachine (BD Biosciences, San Jose, Calif.). To”
Inhibitors of phage binding and internalization (heparin, chondroitin, glycocalyx removal enzymes, endocytosis inhibitors, free peptides, quantum dots and UV-inactivated phage) were added to the cells 20 minutes prior to incubation with phage. Endocytosis inhibitors used in this study were the following: nystatin (50 μg/ml), genistein (100 μg/ml), chlorpromazine (5 μg/ml), 5-(N-ethyl-N-isopropyl)amiloride (100 μM), wortmannin (10 μM).
M21 melanoma cells were transiently transfected with these constructs using lipofectamine according to manufacturer's instructions (Invitrogen, Carlsbad, Calif.). Protease treatment of phage and qdots. 10^9 phage particles or 50 μl of peptide-coated qdots phage were treated with 50 iu of uPA, 25 μg of crystalline trypsin, 50 iu of thrombin, or 25 μg of collagenase type I (all Sigma, St. Louis, Mo.).

[5] = test system: orthotopic 22Rv-1 human prostate cancer xenografts; settings: mouse, in vivo
Description: The circulation time was 2 hrs. for the free peptides, 15 min. for the peptide-displaying phage, and 3 hrs. for the peptide-coupled micelles. […] Representative fields from multiple sections of each of these three tumors are shown. Scale bars=50 μm. […] The samples were subjected to image analysis with Scanscope CM-1 scanner for quantification of the FAM-positive areas. Statistical analysis was performed with Student's t-test. n=3; error bars, s.e.m.; triple asterisk, p<0.001.

[6] = test system: heart (cardiomyocyte apoptosis); assay: TUNEL staining of heart sections after DOX-liposome treatment; assay type: in vivo, mice; settings: 1 mg DOX/kg + iRGD daily, 17 days
Description: (FIGS. 14A and 14B) Nude mice bearing orthotopic 22Rv1 human prostate tumors were intravenously injected with DOX-liposomes (3 mg DOX/kg) followed 5 min later by 100 nmol iRGD or PBS. Tumors and tissues were collected 3 hours later. In (FIG. 14A), the tumors were sectioned and stained with an anti-CD31 antibody. The doxorubicin is represented by the light specs that look like four halos in the left panel. Scale bars=200 μm, n=3. In (FIG. 14B), DOX in the tissues was quantified. […] The tumors were harvested and weighed after 17 days of treatment. The number of mice in each group was 5. One of 3 experiments that gave similar results is shown. (FIG. 14D) TUNEL staining was performed immunohistochemically on tissue sections of the tumor and heart samples from the treatment study, and quantified for positivity. Statistical analyses were performed with Student's r-test in (FIG. 14B), and ANOVA in (FIG. 14C) and (FIG. 14D); error bars, s.e.m.; n.s., not significant; single asterisk, p<0.05; double asterisk, p<0.01; triple asterisk, p<0.001. […]
Cryo-sections were immunohistochemically stained, scanned with a Scanscope CM-1 scanner, and positively stained areas were quantified with the ImageScope software (Aperio Technologies, Vista, Calif.; Sugahara et al., 2009). […]

orthotopic 22Rv1 tumors = assay: 22Rv1 xenograft treatment with DOX-liposomes; assay type: in vivo, mice; settings: daily i.v. 1 mg DOX/kg + 2 μmol/kg peptide, 17 days, tumor weight
Description: (FIGS. 14A and 14B) Nude mice bearing orthotopic 22Rv1 human prostate tumors were intravenously injected with DOX-liposomes (3 mg DOX/kg) followed 5 min later by 100 nmol iRGD or PBS. Tumors and tissues were collected 3 hours later. In (FIG. 14A), the tumors were sectioned and stained with an anti-CD31 antibody. The doxorubicin is represented by the light specs that look like four halos in the left panel. Scale bars=200 μm, n=3. In (FIG. 14B), DOX in the tissues was quantified. […] The tumors were harvested and weighed after 17 days of treatment. The number of mice in each group was 5. One of 3 experiments that gave similar results is shown. (FIG. 14D) TUNEL staining was performed immunohistochemically on tissue sections of the tumor and heart samples from the treatment study, and quantified for positivity. Statistical analyses were performed with Student's r-test in (FIG. 14B), and ANOVA in (FIG. 14C) and (FIG. 14D); error bars, s.e.m.; n.s., not significant; single asterisk, p<0.05; double asterisk, p<0.01; triple asterisk, p<0.001.
Nude mice bearing 2 week-old orthotopic 22Rv1 tumors received daily intravenous injections of DOX-liposomes ([…]) or PBS, combined with 2 μmol/kg iRGD or PBS. The tumors were harvested and weighed after 17 days of treatment. The number of animals in each group was 13. […]

[7] = test system: orthotopic MIA PaCa-2 human pancreatic carcinoma xenografts; assay: In vivo systemic permeability assay with Evans Blue, pancreatic tumor xenografts; set-up: species or system mice; settings: 100 nmol (or 100 μg) peptide 5 min after Evans Blue, tissues collected 30 min later
Description: FIGS. 5A and 5B show tumor-specific entry of Evans Blue (albumin) into extravascular tumor tissue in iRGD-injected mice. iRGD is SEQ ID NO:3. iRGDD is SEQ ID NO:4. Mice bearing orthotopically transplanted pancreatic or breast cancer xenografts were injected with […] of Evans Blue, followed 5 min later by 100 μg of iRGD peptide in PBS, PBS alone, or a control peptide. Tumors and tissues were collected 30 min. later and examined for dye content. […] About 4 times more dye accumulated in the iRGD-treated tumors than in control tumors. The control peptides included non-CendR RGD peptides.
FIGS. 9A-9D show a tumor-specific entry of Evans Blue into extravascular tumor tissue in iRGD-injected mice. iRGD is SEQ ID NO:3. iRGDD is SEQ ID NO:4. […] (FIGS. 9B to 9D) Quantification of Evans Blue in the pancreatic tumors and tissues. […]
Five min later, the mice received an intravenous injection with 100 μl of PBS with or without iRGD or control peptides at various concentrations. […] For Evans Blue quantification, the dye was extracted from tissues using N,N-dimethylformamide for 24 hours at 37° C. and the dye content was quantified by measuring the absorbance at 600 nm with a spectrophotometer. […] Quantification of the positive area in immunohistochemically stained sections, and total amount of antibodies within the tissues are described elsewhere in this manuscript.

tumor = settings: VEGF locally superfused on tumors; cited from earlier work

T1 sequence (O14786 22-923): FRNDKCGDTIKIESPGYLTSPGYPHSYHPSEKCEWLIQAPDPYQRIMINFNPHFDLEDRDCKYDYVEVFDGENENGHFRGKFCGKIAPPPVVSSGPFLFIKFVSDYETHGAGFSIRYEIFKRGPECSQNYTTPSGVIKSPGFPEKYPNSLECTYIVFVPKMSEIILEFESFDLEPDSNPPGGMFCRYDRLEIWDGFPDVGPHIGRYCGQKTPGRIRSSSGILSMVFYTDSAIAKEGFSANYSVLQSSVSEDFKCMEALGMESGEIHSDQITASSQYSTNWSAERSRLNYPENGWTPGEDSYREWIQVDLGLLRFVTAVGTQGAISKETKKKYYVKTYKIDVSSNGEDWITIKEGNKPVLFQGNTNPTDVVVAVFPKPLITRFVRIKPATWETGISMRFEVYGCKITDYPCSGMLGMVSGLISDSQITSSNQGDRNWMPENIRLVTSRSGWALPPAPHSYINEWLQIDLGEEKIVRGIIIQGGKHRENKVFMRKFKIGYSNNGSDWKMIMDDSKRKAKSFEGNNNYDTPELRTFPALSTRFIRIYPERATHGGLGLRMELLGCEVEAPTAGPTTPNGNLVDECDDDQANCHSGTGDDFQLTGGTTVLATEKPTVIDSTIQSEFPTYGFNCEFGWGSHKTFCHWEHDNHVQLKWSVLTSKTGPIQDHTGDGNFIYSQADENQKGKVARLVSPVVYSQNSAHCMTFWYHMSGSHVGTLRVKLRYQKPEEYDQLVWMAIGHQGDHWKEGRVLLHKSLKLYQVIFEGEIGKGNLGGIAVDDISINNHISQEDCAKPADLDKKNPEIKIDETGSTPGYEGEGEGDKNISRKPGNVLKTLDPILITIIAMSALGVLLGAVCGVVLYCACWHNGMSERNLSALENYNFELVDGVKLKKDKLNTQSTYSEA
T2 sequence (O14786 22-923 S346A/E348A/T349A): as the sequence (O14786 22-923) above, with S325A, E327A, T328A counted along it

With RPARPAR [prototypic CendR peptide] the “protein eluted from immobilized peptide with free peptide” value (NRP-1 [1]) was 130-kDa protein, identified by MALDI-TOF mass spectroscopy as NRP-1, the “binding and internalization by M21 melanoma cells” value (NRP-1 [2]) was “do not bind nor internalize” and the “binding by M21 cells transfected with NRP-1 binding pocket mutant” value (NRP-1 [3]) was “did not confer”. The “effect of inhibitors of cell internalization pathways on peptide-mediated internalization” value ([4]; endocytosis inhibitors added 20 minutes before phage) was “None of the available inhibitors of the various cell internalization pathways inhibited internalization” and the “effect of unlabeled peptide on binding and uptake of VEGF-C7, enhanced tuftsin or A7R phage by PPC-1 cells” value ([4]; unlabeled peptide included in the binding buffer) was “both activities were reduced”.

With `N=C(N)NCCC[C@@H]1NC(=O)[C@@H](N)CSSC[C@@H](C(=O)O)NC(=O)[C@H](CC(=O)O)NC(=O)[C@@H]2CCCN2C(=O)CNC(=O)[C@H](CCCCN)NC(=O)[C@H](CC(=O)O)NC(=O)CNC1=O` [iRGD] the “homing to normal tissue” value [5] was “does not detectably home to any normal tissue” and the “cardiomyocyte apoptosis (TUNEL), combo group” value [6] was “minimally present”.

With cyclo(-RGDfK-) the “anti-tumor effect of DOX-liposomes 1 mg DOX/kg combined with peptide” value (orthotopic 22Rv1 tumors) was “failed to enhance the effect of the drug” and the “Evans Blue leakage/accumulation in tumor (vascular permeability effect)” value [7] was “inactive”.

For VEGF, the “enhancement of extravasation of albumin and nanoparticles within the tumor” value (tumor) is given as “up to 4 fold”.
